Results reported in patent US10214519B2, “Phosphatidylinositol 3-kinase inhibitors” (Gilead Sciences, Inc., priority 2016, dated 2019).

Biological target: PI3Kβ (Homo sapiens (Human), UniProt P42338)
Test: PI3K isoform TR-FRET enzymatic assay (PI3Kβ)
Type: biochemical
Conditions: 2× Km ATP, 30 minutes at 25° C.
Protocol: The compounds of formula (I) were characterized for their enzymatic activity against the PI3K isoforms. The activities were measured using a time-resolved fluorescence resonance energy transfer (TR-FRET) assay. TR-FRET monitored the formation of 3,4,5-inositol triphosphate molecule that competed with fluorescently labeled PIP3 for binding to the GRP-1 pleckstrin homology domain protein.
Class I PI3K isoforms were expressed and purified as heterodimeric recombinant proteins. All assay reagents and buffers for the TR-FRET assay were purchased from Millipore. […] The compounds were added to the assay solution and incubated for 30 minutes at 25° C. The reactions were terminated with a final concentration of 10 mM EDTA, 10 nM labeled-PIP3, and 35 nM Europium labeled GRP-1 detector protein before reading TR-FRET on an Envision plate reader (Ex: 340 nm; Em: 615/665 nm; 100 μs delay and 500 μs read window).
The results were normalized based on positive (1 μM wortmanin) and negative (DMSO) controls, and the IC50 values for PI3K α, β, δ, and γ were calculated from the fit of the dose-response curves to a four-parameter equation.

Sequence of PI3Kβ (P42338 whole entry, canonical isoform): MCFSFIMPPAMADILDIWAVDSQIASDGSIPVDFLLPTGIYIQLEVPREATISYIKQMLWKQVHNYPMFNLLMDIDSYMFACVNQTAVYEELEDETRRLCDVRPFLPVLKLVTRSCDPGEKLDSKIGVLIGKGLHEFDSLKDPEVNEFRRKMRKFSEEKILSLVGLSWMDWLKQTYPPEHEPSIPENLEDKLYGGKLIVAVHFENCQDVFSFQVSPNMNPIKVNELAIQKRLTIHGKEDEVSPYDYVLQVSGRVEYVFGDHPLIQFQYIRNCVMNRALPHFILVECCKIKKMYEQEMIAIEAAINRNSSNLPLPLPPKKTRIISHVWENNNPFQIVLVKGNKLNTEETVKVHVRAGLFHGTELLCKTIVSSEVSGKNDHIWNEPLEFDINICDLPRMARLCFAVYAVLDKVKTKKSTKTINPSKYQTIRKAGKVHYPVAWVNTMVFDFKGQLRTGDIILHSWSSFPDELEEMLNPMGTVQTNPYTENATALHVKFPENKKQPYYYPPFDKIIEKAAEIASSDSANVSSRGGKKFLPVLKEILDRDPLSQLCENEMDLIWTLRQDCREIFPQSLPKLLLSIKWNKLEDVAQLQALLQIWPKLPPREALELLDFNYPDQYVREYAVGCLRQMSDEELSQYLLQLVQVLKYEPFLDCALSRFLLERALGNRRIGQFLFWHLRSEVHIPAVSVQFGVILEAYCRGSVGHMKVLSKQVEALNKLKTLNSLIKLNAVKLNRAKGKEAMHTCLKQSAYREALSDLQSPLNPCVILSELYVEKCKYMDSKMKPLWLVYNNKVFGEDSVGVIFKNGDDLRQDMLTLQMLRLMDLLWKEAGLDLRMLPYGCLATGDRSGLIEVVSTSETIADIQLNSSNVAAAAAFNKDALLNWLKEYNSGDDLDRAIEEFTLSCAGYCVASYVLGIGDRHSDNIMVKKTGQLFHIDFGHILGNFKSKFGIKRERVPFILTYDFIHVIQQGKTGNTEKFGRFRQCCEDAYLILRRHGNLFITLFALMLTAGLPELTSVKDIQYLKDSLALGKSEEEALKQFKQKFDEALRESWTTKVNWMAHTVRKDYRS
Sequence of PI3Kβ (P27986 whole entry partner, canonical isoform): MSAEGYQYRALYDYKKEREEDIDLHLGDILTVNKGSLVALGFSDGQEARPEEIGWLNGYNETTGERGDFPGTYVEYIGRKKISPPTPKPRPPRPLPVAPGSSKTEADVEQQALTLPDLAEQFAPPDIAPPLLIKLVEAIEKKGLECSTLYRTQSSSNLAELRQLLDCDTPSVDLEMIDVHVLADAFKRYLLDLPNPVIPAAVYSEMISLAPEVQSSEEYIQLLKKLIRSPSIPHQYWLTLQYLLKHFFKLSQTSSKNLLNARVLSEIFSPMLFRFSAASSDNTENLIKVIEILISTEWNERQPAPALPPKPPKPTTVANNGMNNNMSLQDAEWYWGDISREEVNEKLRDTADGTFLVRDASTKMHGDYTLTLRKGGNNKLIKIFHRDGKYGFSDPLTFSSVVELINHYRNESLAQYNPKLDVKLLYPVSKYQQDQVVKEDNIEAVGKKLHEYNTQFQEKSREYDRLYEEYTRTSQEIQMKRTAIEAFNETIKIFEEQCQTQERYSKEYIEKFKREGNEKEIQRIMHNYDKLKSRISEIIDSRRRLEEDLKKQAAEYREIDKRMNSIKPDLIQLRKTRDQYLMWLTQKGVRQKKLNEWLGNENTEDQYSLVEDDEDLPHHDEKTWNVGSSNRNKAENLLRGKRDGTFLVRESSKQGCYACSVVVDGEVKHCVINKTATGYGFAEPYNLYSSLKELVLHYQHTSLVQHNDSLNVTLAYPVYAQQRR

| IC50 [nM] | Compound |
| --- | --- |
| 10 | CCCc1nc2c(-c3nnc[nH]3)cc(N3CCOCC3)cc2n1-c1ccnc2c(Cl)cc(F)cc12 [Example 33, 4-(1-(8-chloro-6-fluoroquinolin-4-yl)-2-propyl-4-(4H-1,2,4-triazol-3-yl)-1H-benzo[d]imidazol-6-yl)morpholine] |
| 18 | CCCc1nc2c(-c3nnc[nH]3)cc(N3CCOCC3)cc2n1-c1ccnc2c(Cl)ccc(F)c12 [Example 48, 4-(1-(8-chloro-5-fluoroquinolin-4-yl)-2-propyl-4-(4H-1,2,4-triazol-3-yl)-1H-benzo[d]imidazol-6-yl)morpholine] |
| 17 | Fc1ccc2c(-n3c(C4CC4)nc4c(-c5cnc(Cl)[nH]5)cc(N5CCOCC5)cc43)ccnc2c1Cl [Example 296, 4-[3-(8-chloro-7-fluoroquinolin-4-yl)-7-(2-chloro-1H-imidazol-5-yl)-2-cyclopropylbenzimidazol-5-yl]morpholine] |
| 170 | Cc1nc2c(-c3cn[nH]c3)cc(N3CCOCC3)cc2n1-c1ccnc2c(Cl)cccc12 [Example 183, 4-(1-(8-chloroquinolin-4-yl)-2-methyl-4-(1H-pyrazol-4-yl)-1H-benzo[d]imidazol-6-yl)morpholine] |
| 11 | CCc1nc2c(-c3ncco3)cc(N3CCOCC3)cc2n1-c1ccnc2c(Cl)c(F)ccc12 [Example 218, 4-[3-(8-chloro-7-fluoroquinolin-4-yl)-2-ethyl-7-(1,3-oxazol-2-yl)benzimidazol-5-yl]morpholine] |
| 16 | CCc1nc2c(-c3nnc[nH]3)cc(N3CCOCC3)cc2n1-c1ccnc2c(F)ccc(F)c12 [Example 125, 4-[3-(5,8-difluoroquinolin-4-yl)-2-ethyl-7-(4H-1,2,4-triazol-3-yl)benzimidazol-5-yl]morpholine] |
| 5200 | Cc1nc2c(-c3cccnc3)cc(N3CCOCC3)cc2n1-c1ccnc2c(-c3cccnc3)cccc12 [Example 318, 4-[2-methyl-7-pyridin-3-yl-3-(8-pyridin-3-ylquinolin-4-yl)benzimidazol-5-yl]morpholine] |
| 9 | Cc1nc2c(-c3nnc[nH]3)cc(N3CCOCC3)cc2n1-c1cc(N2CCNCC2)nc2ccccc12 [Example 168, 4-(2-methyl-1-(2-(piperazin-1-yl)quinolin-4-yl)-4-(4H-1,2,4-triazol-3-yl)-1H-benzo[d]imidazol-6-yl)morpholine 2,2,2-trifluoroacetate] |
| > 10000 | CCCc1nc2c(-c3ncco3)cc(N3CCOCC3)cc2n1-c1ccnc2c(F)ccc(F)c12 (atropisomer, axis not shown) [Compound 356, 4-[3-(5,8-difluoroquinolin-4-yl)-7-(1,3-oxazol-2-yl)-2-propylbenzimidazol-5-yl]morpholine] |
| 3800 | Cc1ncc(-c2cc(N3CCOCC3)cc3c2nc(C)n3-c2ccnc3c(Cl)cccc23)s1 [Example 297, 4-[3-(8-chloroquinolin-4-yl)-2-methyl-7-(2-methyl-1,3-thiazol-5-yl)benzimidazol-5-yl]morpholine] |
| 19 | Cc1nnc(-c2cc(N3CCOCC3)cc3c2ncn3-c2ccnc3c(F)ccc(F)c23)[nH]1 [Example 44, 4-(1-(5,8-difluoroquinolin-4-yl)-4-(5-methyl-4H-1,2,4-triazol-3-yl)-1H-benzo[d]imidazol-6-yl)morpholine] |
| 20 | CCc1nc2c(-c3cnc[nH]3)cc(N3CCOCC3)cc2n1-c1ccnc2c(F)ccc(F)c12 [Example 337, 4-[3-(5,8-difluoroquinolin-4-yl)-2-ethyl-7-(1H-imidazol-5-yl)benzimidazol-5-yl]morpholine] |
| 84 | Fc1ccc2c(-n3c(C4CC4)nc4c(-c5nnc[nH]5)cc(N5CCOCC5)cc43)ccnc2c1F [Example 143, 4-[2-cyclopropyl-3-(7,8-difluoroquinolin-4-yl)-7-(4H-1,2,4-triazol-3-yl)benzimidazol-5-yl]morpholine] |
| 72 | Cc1c(C2CC2)nc2ccccc2c1-n1c(C)nc2c(-c3nnc[nH]3)cc(N3CCOCC3)cc21 [Example 56, 4-[3-(2-cyclopropyl-3-methylquinolin-4-yl)-2-methyl-7-(4H-1,2,4-triazol-3-yl)benzimidazol-5-yl]morpholine] |
| 100 | Cc1csc(-c2cc(N3CCOCC3)cc3c2nc(C2CC2)n3-c2ccnc3c(Cl)cccc23)n1 [Example 234, 4-[3-(8-chloroquinolin-4-yl)-2-cyclopropyl-7-(4-methyl-1,3-thiazol-2-yl)benzimidazol-5-yl]morpholine] |
| 11 | CCCc1nc2c(-c3nnc[nH]3)cc(N3CCOCC3)cc2n1-c1ccnc2c(C)ccc(F)c12 [Example 37, 4-(1-(5-fluoro-8-methylquinolin-4-yl)-2-propyl-4-(4H-1,2,4-triazol-3-yl)-1H-benzo[d]imidazol-6-yl)morpholine] |
| 12 | Cc1nc2c(-c3nnc[nH]3)cc(N3CCOCC3)cc2n1-c1ccnc2c(C#N)cccc12 [Example 89, 4-[2-methyl-6-morpholin-4-yl-4-(4H-1,2,4-triazol-3-yl)benzimidazol-1-yl]quinoline-8-carbonitrile] |
| 19 | Clc1cccc2c(-n3c(C4CC4)nc4c(-c5nnc[nH]5)cc(N5CCOCC5)cc43)ccnc12 [Example 110, 4-[3-(8-chloroquinolin-4-yl)-2-cyclopropyl-7-(4H-1,2,4-triazol-3-yl)benzimidazol-5-yl]morpholine] |
| 62 | Cc1n[nH]c(-c2cc(N3CCOCC3)cc3c2nc(C)n3-c2c(C)cnc3ccccc23)n1 [Example 74, 4-[2-methyl-3-(3-methylquinolin-4-yl)-7-(3-methyl-1H-1,2,4-triazol-5-yl)benzimidazol-5-yl]morpholine] |
| 42 | Cc1nc2c(-c3nnc(Cl)[nH]3)cc(N3CCOCC3)cc2n1-c1ccnc2c(F)ccc(F)c12 [Example 180, 4-[7-(5-chloro-4H-1,2,4-triazol-3-yl)-3-(5,8-difluoroquinolin-4-yl)-2-methylbenzimidazol-5-yl]morpholine] |
| 38 | Cc1nc2c(-c3cnc(Cl)[nH]3)cc(N3CCOCC3)cc2n1-c1ccnc2cc(F)ccc12 [Example 293, 4-[7-(2-chloro-1H-imidazol-5-yl)-3-(7-fluoroquinolin-4-yl)-2-methylbenzimidazol-5-yl]morpholine] |
| 20 | Clc1ncc(-c2cc(N3CCOCC3)cc3c2nc(CC2CC2)n3-c2ccnc3c(Cl)cccc23)[nH]1 [Example 301, 4-[7-(2-chloro-1H-imidazol-5-yl)-3-(8-chloroquinolin-4-yl)-2-(cyclopropylmethyl)benzimidazol-5-yl]morpholine] |
| 36 | CCc1nc2c(-c3cnc(Cl)[nH]3)cc(N3CCOCC3)cc2n1-c1ccnc2c(F)ccc(Cl)c12 [Example 310, 4-[3-(5-chloro-8-fluoroquinolin-4-yl)-7-(2-chloro-1H-imidazol-5-yl)-2-ethylbenzimidazol-5-yl]morpholine] |
| 6 | Cc1nc2c(-c3ncco3)cc(N3CCOCC3)cc2n1-c1ccnc2c(F)cccc12 (atropisomer, axis not shown) [Example 341, 4-[3-(8-fluoroquinolin-4-yl)-2-methyl-7-(1,3-oxazol-2-yl)benzimidazol-5-yl]morpholine] |
| 24 | Cc1cnc2ccccc2c1-n1c(C)nc2c(-c3nnc[nH]3)cc(N3CCOCC3)cc21 [Example 65, 4-[2-methyl-3-(3-methylquinolin-4-yl)-7-(4H-1,2,4-triazol-3-yl)benzimidazol-5-yl]morpholine] |
